Measurements taken from article PMC8286599 (Gut Pathogens, 2021).
Like-named read-outs stand apart in the source and are kept apart here.

How the values were obtained:
[1] = Haemolytic assay; assay type: cell-based; details: read-out: Haemolysis; for hemolysis at 0.5 X MIC: 0.50X MIC
Method: The haemolytic assay of the individual phytochemical was performed by measuring the release of haemoglobin from sheep and human ‘O’ erythrocytes at 540 nm. The percentage of haemolysis was calculated as (Asample – APBS)/ (ATriton−X – APBS) ×100, in which Asample is the absorbance of phytochemical treatment, APBS is the absorbance of untreated control with PBS, and ATriton−X is the absorbance of lysed cells treated with Triton X-100 measured at 540 nm.

[2] = test system: MDR-EAEC strains; test: Stability assay, pH (MIC)
Excerpt: (§4) To explore the utility of phytochemicals as therapeutic molecules and their stability, individual phytochemicals were exposed to cationic salts, and different pH levels followed by analysing their MIC and MBC values against test strains as described earlier.
(§5) Subsequent to exposure to varied conditions, the antimicrobial activity of the phytochemicals was estimated by determining their MIC and MBC values against all the selected MDR strains of EAEC, S. Enteritidis, and S. Typhimurium as described earlier.

[3] = test system: MDR-S. Enteritidis strains; test: MIC and MBC by broth microdilution with resazurin; assay type: cell-based, Salmonella Enteritidis; details: poultry droppings isolate
Excerpt: (§1) The characterised MDR field strains of EAEC (E1; E2; E3), S. Enteritidis (S1; S2; S3), and S. Typhimurium (ST1; ST2; ST3) maintained in the laboratory repository of Meat Safety Laboratory of ICAR-National Research Centre on Meat, Hyderabad re-validated using PCR assays were used to evaluate the in vitro antibacterial efficacy of phytochemicals. E. coli ATCC 25922 was used as the quality control strain.
(§2) The antimicrobial efficacy of identified phytochemicals against multi-drug resistant EAEC and NTS strains was determined by estimating the minimum inhibitory concentration (MIC) and minimum bactericidal concentrations (MBC).
(§3) Subsequent to the incubation period, resazurin dye (0.015 %) was added to all the wells to determine the dye reduction (pink) and thereby the bacterial inhibition.

[4] = test system: MDR-S. Typhimurium strains; test: MIC and MBC by broth microdilution with resazurin; assay type: cell-based, Salmonella Typhimurium; details: poultry droppings isolate
Excerpt: as §1, §2, §3

[5] = test system: MDR-S. Typhimurium strains; test: Stability assay, cationic salts (MIC)
Excerpt: as §4, §5

[6] = test system: MDR-S. Enteritidis strains; test: Stability assay, cationic salts (MIC)
Excerpt: as §4, §5

[7] = test system: MDR-S. Enteritidis strains; test: Stability assay, pH (MIC)
Excerpt: as §4, §5

[8] = test system: MDR-EAEC strains; test: MIC and MBC by broth microdilution with resazurin; assay type: cell-based, enteroaggregative Escherichia coli; details: infant diarrhoea isolate
Excerpt: as §1, §2, §3

[9] = test system: MDR-EAEC strains; test: Stability assay, cationic salts (MIC)
Excerpt: as §4, §5

[10] = test system: MDR-S. Typhimurium strains; test: Stability assay, pH (MIC)
Excerpt: as §4, §5

[11] = human 'O' erythrocytes, Human RBCs

With `Cc1ccc(C(C)C)c(O)c1` [Thymol, thymol] the hemolysis at 0.25 X MIC [1, 11] was 1.22%, the hemolysis at 0.5 X MIC [1, 11] was 1.91% and the hemolysis at 1 X MIC [1, 11] was 2.86%. It also gave a hemolysis at 2 X MIC [1, 11] of 13.5%, a hemolysis at 4 X MIC [1, 11] of 39.4% and a hemolysis at 8 X MIC [1, 11] of 48.5%. For the same molecule, the hemolysis at 0.25 X MIC ([1]; sheep erythrocytes, Sheep RBCs) was 0%, the hemolysis at 0.5 X MIC ([1]; sheep erythrocytes, Sheep RBCs) was 0.22% and the hemolysis at 1 X MIC ([1]; sheep erythrocytes, Sheep RBCs) was 1.49%. It also gave a hemolysis at 2 X MIC ([1]; sheep erythrocytes, Sheep RBCs) of 11.4%, a hemolysis at 4 X MIC ([1]; sheep erythrocytes, Sheep RBCs) of 21.6% and a hemolysis at 8 X MIC ([1]; sheep erythrocytes, Sheep RBCs) of 47.6%. For the same molecule, the “MIC at given pH” value ([2]; pH 4, strain E1) was 0.25 µl/ml, the “MIC at given pH” value ([2]; pH 4, strain E2) was 0.25 µl/ml and the “MIC at given pH” value ([2]; pH 4, strain E3) was 0.25 µl/ml. For the same molecule, the “MIC at given pH” value ([2]; pH 6, strain E1) was 0.25 µl/ml, the “MIC at given pH” value ([2]; pH 6, strain E2) was 0.25 µl/ml and the “MIC at given pH” value ([2]; pH 6, strain E3) was 0.25 µl/ml. For the same molecule, the “MIC at given pH” value ([2]; pH 8, strain E1) was 0.5 µl/ml, the “MIC at given pH” value ([2]; pH 8, strain E2) was 0.25 µl/ml and the “MIC at given pH” value ([2]; pH 8, strain E3) was 0.5 µl/ml. For the same molecule, the MBC ([3]; S. Enteritidis (S1)) was 0.50 µl/ml, the MIC ([3]; S. Enteritidis (S1)) was 0.12 µl/ml and the MBC ([3]; S. Enteritidis (S2)) was 0.50 µl/ml. For the same molecule, the MIC ([3]; S. Enteritidis (S2)) was 0.25 µl/ml, the MBC ([3]; S. Enteritidis (S3)) was 0.50 µl/ml and the MIC ([3]; S. Enteritidis (S3)) was 0.25 µl/ml. The MBC ([4]; S. Typhimurium (ST1)) was 0.50 µl/ml, the MIC ([4]; S. Typhimurium (ST1)) was 0.25 µl/ml and the MBC ([4]; S. Typhimurium (ST2)) was 0.50 µl/ml. The MIC ([4]; S. Typhimurium (ST2)) was 0.25 µl/ml, the MBC ([4]; S. Typhimurium (ST3)) was 0.50 µl/ml and the MIC ([4]; S. Typhimurium (ST3)) was 0.06 µl/ml. For the same molecule, the “MIC with cationic salt” value ([5]; 2 mM MgCl2, strain ST1) was 0.5 µl/ml, the “MIC with cationic salt” value ([5]; 2 mM MgCl2, strain ST2) was 1.0 µl/ml and the “MIC with cationic salt” value ([5]; 2 mM MgCl2, strain ST3) was 0.5 µl/ml. The “MIC with cationic salt” value ([5]; 150 mM NaCl, strain ST1) was 0.5 µl/ml, the “MIC with cationic salt” value ([5]; 150 mM NaCl, strain ST2) was 0.5 µl/ml and the “MIC with cationic salt” value ([5]; 150 mM NaCl, strain ST3) was 0.5 µl/ml. For the same molecule, the “MIC with cationic salt” value ([6]; 2 mM MgCl2, strain S1) was 0.5 µl/ml, the “MIC with cationic salt” value ([6]; 2 mM MgCl2, strain S2) was 0.5 µl/ml and the “MIC with cationic salt” value ([6]; 2 mM MgCl2, strain S3) was 0.5 µl/ml. For the same molecule, the “MIC with cationic salt” value ([6]; 150 mM NaCl, strain S1) was 0.5 µl/ml, the “MIC with cationic salt” value ([6]; 150 mM NaCl, strain S2) was 0.5 µl/ml and the “MIC with cationic salt” value ([6]; 150 mM NaCl, strain S3) was 1.0 µl/ml. The “MIC at given pH” value ([7]; pH 4, strain S1) was 0.5 µl/ml, the “MIC at given pH” value ([7]; pH 4, strain S2) was 0.5 µl/ml and the “MIC at given pH” value ([7]; pH 4, strain S3) was 0.5 µl/ml. The “MIC at given pH” value ([7]; pH 6, strain S1) was 0.5 µl/ml, the “MIC at given pH” value ([7]; pH 6, strain S2) was 0.5 µl/ml and the “MIC at given pH” value ([7]; pH 6, strain S3) was 0.5 µl/ml. For the same molecule, the “MIC at given pH” value ([7]; pH 8, strain S1) was 0.5 µl/ml, the “MIC at given pH” value ([7]; pH 8, strain S2) was 1.0 µl/ml and the “MIC at given pH” value ([7]; pH 8, strain S3) was 0.5 µl/ml. It also gave an MBC ([8]; EAEC (E1)) of 0.25 µl/ml, an MIC ([8]; EAEC (E1)) of 0.25 µl/ml and an MBC ([8]; EAEC (E2)) of 0.50 µl/ml. The MIC ([8]; EAEC (E2)) was 0.25 µl/ml, the MBC ([8]; EAEC (E3)) was 0.25 µl/ml and the MIC ([8]; EAEC (E3)) was 0.25 µl/ml. For the same molecule, the “MIC with cationic salt” value ([9]; 2 mM MgCl2, strain E1) was 0.25 µl/ml, the “MIC with cationic salt” value ([9]; 2 mM MgCl2, strain E2) was 0.25 µl/ml and the “MIC with cationic salt” value ([9]; 2 mM MgCl2, strain E3) was 0.25 µl/ml. The “Change of MIC values with cationic salts” value ([9]; 150 mM NaCl and 2 mM MgCl2, MDR-EAEC strains) was “remained almost similar”, the “MIC with cationic salt” value ([9]; 150 mM NaCl, strain E1) was 0.25 µl/ml and the “MIC with cationic salt” value ([9]; 150 mM NaCl, strain E2) was 0.25 µl/ml. For the same molecule, the “MIC with cationic salt” value ([9]; 150 mM NaCl, strain E3) was 0.25 µl/ml, the “MIC at given pH” value ([10]; pH 4, strain ST1) was 0.5 µl/ml and the “MIC at given pH” value ([10]; pH 4, strain ST2) was 0.5 µl/ml. The “MIC at given pH” value ([10]; pH 4, strain ST3) was 0.5 µl/ml, the “MIC at given pH” value ([10]; pH 6, strain ST1) was 0.5 µl/ml and the “MIC at given pH” value ([10]; pH 6, strain ST2) was 1.0 µl/ml. For the same molecule, the “MIC at given pH” value ([10]; pH 6, strain ST3) was 0.5 µl/ml, the “MIC at given pH” value ([10]; pH 8, strain ST1) was 0.5 µl/ml and the “MIC at given pH” value ([10]; pH 8, strain ST2) was 1.0 µl/ml. The “MIC at given pH” value ([10]; pH 8, strain ST3) was 1.0 µl/ml.
